{
  "source": "paper PMC4805251",
  "about": "“Novel Antimicrobial Peptides EeCentrocins 1, 2 and EeStrongylocin 2 from the Edible Sea Urchin Echinus esculentus Have 6-Br-Trp Post-Translational Modifications” (PLoS ONE, 2016)",
  "assay_type_in_all_cases": "cell-based",
  "key": {"[1]": {"system": "Bacillus subtilis (ATCC 23857)", "description": "(§1) Organic phase extract, SPE eluates and HPLC-fractions were screened for antibacterial activity against two strains of Gram-positive and two strains of Gram-negative bacteria; Corynebacterium glutamicum (ATCC 13032), Staphylococcus aureus (ATCC 9144), Pseudomonas aeruginosa #1 (ATCC 27853) and Escherichia coli #1 (ATCC 25922). For extended antimicrobial bioactivity screening, the following bacterial strains were used, three strains of Gram-positive bacteria; S. epidermidis #1 (5179-R1) kindly provided by Holger Rohde, S. epidermidis #2, RP62A (ATCC 35984) and Bacillus subtilis (ATCC 23857) in addition to the Gram-negative P. aeruginosa #2, PA 01 (ATCC 15692, DSM 19880) and E. coli #2, NR 698 (MC4100/ptD4213).\n(§2) Cultures stored at -80°C were smeared onto agar plates and cultured for 24 h at 35°C. One colony of each bacterial strain was transferred to 5 ml liquid Müller-Hinton (MH, Difco, Lawrence, KS, USA) medium in a glass tube and left shaking at room temperature overnight at 600 rpm. The cultures of actively growing bacteria (20 μl) were further inoculated in 5 ml MH medium and left shaking for 2 h at room temperature. The antibacterial assays were performed as previously described by. Briefly, the bacterial cultures were diluted with medium to 1.3–1.5 × 10^4 bacteria/ml final concentrations and an aliquot of 50 μl was added to each well in 96-well Nunclon^TM microtiter plates (Nagle Nunc Int., Denmark) preloaded with 50 μl test sample solutions, i.e. extracts, eluates or peptides.\n(§3) The test plates were incubated for 24 h at 35°C with optical density (OD595) recorded every hour using an Envision 2103 multilabel reader, controlled by the Wallac Envision manager (PerkinElmer, CT, USA). Antibacterial activity was defined as a sample showing >90% inhibition (as measured by optical density) compared to the negative (growth) controls, consisting of bacteria and water. Oxytetracycline (20 μM) served as a positive (inhibition) control. The minimum inhibitory concentration (MIC) was defined as the lowest concentration of a sample displaying >90% inhibition.\n(§4) ACN-phases and SPE eluates were tested with two-fold serial dilutions ranging from 5.0 to 0.005 mg/ml (5.0, 2.5, 1.25, 0.63, 0.31, 0.16, 0.08, 0.04, 0.02, 0.01, 0.005 mg/ml) whereas HPLC-fractions were tested undiluted for antibacterial activity. Pure, native peptides and synthetic peptides (described in section 2.11) were tested for antimicrobial activity in concentrations ranging from 100 to 0.1 μM in two-fold serial dilutions (100, 50, 25, 12.5, 6.25, 3.13, 1.56, 0.78, 0.39, 0.20, 0.10 μM). Antimicrobial assays involving natural peptides (i.e. fractionated natural material) were run only once due to limited quantities, whereas all other assays were run in triplicates."}, "[2]": {"system": "Corynebacterium glutamicum (ATCC 13032)", "description": "as §1, §2, §3, §4"}, "[3]": {"system": "E. coli #2, NR 698 (MC4100/ptD4213)", "description": "as §1, §2, §3, §4"}, "[4]": {"system": "Escherichia coli #1 (ATCC 25922)", "description": "as §1, §2, §3, §4"}, "[5]": {"system": "P. aeruginosa #2, PA 01 (ATCC 15692, DSM 19880)", "description": "as §1, §2, §3, §4"}, "[6]": {"system": "Pseudomonas aeruginosa #1 (ATCC 27853)", "description": "as §1, §2, §3, §4"}, "[7]": {"system": "S. epidermidis #1 (5179-R1)", "description": "as §1, §2, §3, §4"}, "[8]": {"system": "S. epidermidis #2, RP62A (ATCC 35984)", "description": "as §1, §2, §3, §4"}, "[9]": {"system": "Staphylococcus aureus (ATCC 9144)", "description": "as §1, §2, §3, §4"}, "[10]": {"system": "Aureobasidium pullulans", "description": "(§5) The synthetic peptides (see section 2.11) were also screened for antifungal activity against Candida albicans (ATCC 10231), Saccharomyces cerevisiae, Rhodotorula sp., Aureobasidium pullulans and Cladosporium sp. The antifungal assay was performed as described previously. Briefly, fungal spores were dissolved in potato dextrose broth (Difco, Lawrence, KS, USA) to a concentration of 4 × 10^5 spores/ml. The spores (50 μl) were inoculated on 96-well Nunclon^TM microtiter plates containing the synthetic peptides (50 μl) dissolved in MQ-H2O. […] MIC was defined as the lowest concentration of peptide giving no visible fungal growth. The negative (growth) control contained medium and fungal solution.\nas §4"}, "[11]": {"system": "Cladosporium sp.", "description": "as §5, §4"}, "[12]": {"system": "Saccharomyces cerevisiae", "description": "as §5, §4"}, "[13]": {"conditions": "MH medium, 24 h at 35°C, OD595, lowest concentration with >90% inhibition, value of Table 2, native peptides run once, synthetic in triplicates"}, "[14]": {"conditions": "MH medium, 24 h at 35°C, OD595, >90% inhibition, value of Table 2, triplicates"}, "[15]": {"conditions": "MH medium, 24 h at 35°C, OD595, >90% inhibition, value of Table 2, native peptides run once, synthetic in triplicates"}, "[16]": {"conditions": "potato dextrose broth, 24 h at room temperature, visual, no visible fungal growth, value of Table 2, triplicates"}},
  "note": "Like-named read-outs stand apart in the source and are kept apart here. Ends that are not written are not given here.",
  "data": [
    {"sequence": "WGHKLRSSWNKVKHAVKKGAGYASGACRVLGH [EeCentrocin 2 HC]", "values": [
      {"measurement": "MIC B. subtilis", "setting": "[1]; MH medium, 24 h at 35°C, OD595, lowest concentration with >90% inhibition, value of Table 2, synthetic peptides in triplicates", "value": 6.25, "unit": "µM"},
      {"measurement": "MIC raw data B. subtilis", "setting": "[1]; parallel 1 of three", "value": 6.25, "unit": "µM"},
      {"measurement": "MIC raw data B. subtilis", "setting": "[1]; parallel 2 of three", "value": 3.13, "unit": "µM"},
      {"measurement": "MIC raw data B. subtilis", "setting": "[1]; parallel 3 of three", "value": 3.13, "unit": "µM"},
      {"measurement": "MIC C. glutamicum", "setting": "[2]; [13]", "value": 0.78, "unit": "µM"},
      {"measurement": "MIC raw data C. glutamicum", "setting": "[2]; parallel 1 of three", "value": 0.78, "unit": "µM"},
      {"measurement": "MIC raw data C. glutamicum", "setting": "[2]; parallel 2 of three", "value": 0.78, "unit": "µM"},
      {"measurement": "MIC raw data C. glutamicum", "setting": "[2]; parallel 3 of three", "value": 0.78, "unit": "µM"},
      {"measurement": "MIC E. coli #2", "setting": "[3]; [14]", "value": 6.25, "unit": "µM"},
      {"measurement": "MIC raw data E. coli #2", "setting": "[3]; parallel 1 of three", "value": 6.25, "unit": "µM"},
      {"measurement": "MIC raw data E. coli #2", "setting": "[3]; parallel 2 of three", "value": 3.13, "unit": "µM"},
      {"measurement": "MIC raw data E. coli #2", "setting": "[3]; parallel 3 of three", "value": 3.13, "unit": "µM"},
      {"measurement": "MIC E. coli #1", "setting": "[4]; [15]", "value": 1.56, "unit": "µM"},
      {"measurement": "MIC raw data E. coli #1", "setting": "[4]; parallel 1 of three", "value": 1.56, "unit": "µM"},
      {"measurement": "MIC raw data E. coli #1", "setting": "[4]; parallel 2 of three", "value": 0.78, "unit": "µM"},
      {"measurement": "MIC raw data E. coli #1", "setting": "[4]; parallel 3 of three", "value": 0.78, "unit": "µM"},
      {"measurement": "MIC P. aeruginosa #2", "setting": "[5]; [14]", "value": 6.25, "unit": "µM"},
      {"measurement": "MIC raw data P. aeruginosa #2", "setting": "[5]; parallel 1 of three", "value": 6.25, "unit": "µM"},
      {"measurement": "MIC raw data P. aeruginosa #2", "setting": "[5]; parallel 2 of three", "value": 6.25, "unit": "µM"},
      {"measurement": "MIC raw data P. aeruginosa #2", "setting": "[5]; parallel 3 of three", "value": 3.13, "unit": "µM"},
      {"measurement": "MIC P. aeruginosa #1", "setting": "[6]; [15]", "value": 0.78, "unit": "µM"},
      {"measurement": "MIC raw data P. aeruginosa #1", "setting": "[6]; parallel 1 of three", "value": 0.78, "unit": "µM"},
      {"measurement": "MIC raw data P. aeruginosa #1", "setting": "[6]; parallel 2 of three", "value": 0.78, "unit": "µM"},
      {"measurement": "MIC raw data P. aeruginosa #1", "setting": "[6]; parallel 3 of three", "value": 0.78, "unit": "µM"},
      {"measurement": "MIC S. epidermidis #1", "setting": "[7]; [14]", "value": 3.13, "unit": "µM"},
      {"measurement": "MIC raw data S. epidermidis #1", "setting": "[7]; parallel 1 of three", "value": 3.13, "unit": "µM"},
      {"measurement": "MIC raw data S. epidermidis #1", "setting": "[7]; parallel 2 of three", "value": 3.13, "unit": "µM"},
      {"measurement": "MIC raw data S. epidermidis #1", "setting": "[7]; parallel 3 of three", "value": 1.56, "unit": "µM"},
      {"measurement": "MIC S. epidermidis #2", "setting": "[8]; [14]", "value": 3.13, "unit": "µM"},
      {"measurement": "MIC raw data S. epidermidis #2", "setting": "[8]; parallel 1 of three", "value": 3.13, "unit": "µM"},
      {"measurement": "MIC raw data S. epidermidis #2", "setting": "[8]; parallel 2 of three", "value": 3.13, "unit": "µM"},
      {"measurement": "MIC raw data S. epidermidis #2", "setting": "[8]; parallel 3 of three", "value": 3.13, "unit": "µM"},
      {"measurement": "MIC S. aureus", "setting": "[9]; [13]", "value": 6.25, "unit": "µM"},
      {"measurement": "MIC raw data S. aureus", "setting": "[9]; parallel 1 of three", "value": 6.25, "unit": "µM"},
      {"measurement": "MIC raw data S. aureus", "setting": "[9]; parallel 2 of three", "value": 6.25, "unit": "µM"},
      {"measurement": "MIC raw data S. aureus", "setting": "[9]; parallel 3 of three", "value": 6.25, "unit": "µM"},
      {"measurement": "MIC raw data A. pullulans", "setting": "[10]; parallel 1 of three", "value": 25, "unit": "µM"},
      {"measurement": "MIC raw data A. pullulans", "setting": "[10]; parallel 2 of three", "value": 25, "unit": "µM"},
      {"measurement": "MIC raw data A. pullulans", "setting": "[10]; parallel 3 of three", "value": 25, "unit": "µM"},
      {"measurement": "MIC A. pullulans", "setting": "[10]; [16]", "value": 25, "unit": "µM"},
      {"measurement": "MIC raw data Cladosporium sp.", "setting": "[11]; parallel 1 of three", "value": 12.5, "unit": "µM"},
      {"measurement": "MIC raw data Cladosporium sp.", "setting": "[11]; parallel 2 of three", "value": 12.5, "unit": "µM"},
      {"measurement": "MIC raw data Cladosporium sp.", "setting": "[11]; parallel 3 of three", "value": 12.5, "unit": "µM"},
      {"measurement": "MIC Cladosporium sp.", "setting": "[11]; [16]", "value": 12.5, "unit": "µM"},
      {"measurement": "MIC raw data S. cerevisiae", "setting": "[12]; parallel 1 of three", "value": 12.5, "unit": "µM"},
      {"measurement": "MIC raw data S. cerevisiae", "setting": "[12]; parallel 2 of three", "value": 12.5, "unit": "µM"},
      {"measurement": "MIC raw data S. cerevisiae", "setting": "[12]; parallel 3 of three", "value": 12.5, "unit": "µM"},
      {"measurement": "MIC S. cerevisiae", "setting": "[12]; [16]", "value": 12.5, "unit": "µM"}
    ]}
  ]
}
